Data: patent publication US4992369A, “Fermentation process for glycopeptide antibiotic” (Pfizer Inc., priority 1986, dated 1991)

System: rumen fluid
Test: In vitro rumen technique: propionic acid production in rumen fluid
Format: cell-based
Conditions: 10 micrograms per milliliter; rumen fluid from fistulated cow, 39° C., about 16 hours
Method: The value of animal feeds has generally been determined directly by feeding the animal. British Patent Specification No. 1,197,826 details an in vitro rumen technique whereby the changes occurring in feeds brought about by microorganisms are measured more readily and with great accuracy in the evaluation of animal feeds. This technique involves the use of an apparatus in which the digestive processes of the animals are conducted and studied in vitro. The animal feeds, rumen inoculum and various growth promotants are introduced into and withdrawn from a laboratory unit under carefully controlled conditions and the changes taken place are studied critically and progressively during the consumption of the feed by the microorganisms. […] The change in propionic acid content is expressed as percent of the propionic acid content found in the control rumen fluid. Long term in vivo feeding studies are used to show a reliable correlation between propionic acid increase in the rumen fluid and improved animal performance. […]
After incubation, 5 ml. of the sample is mixed with 1 ml. of 25% metaphosphoric acid. […] Samples are then analyzed by gas-liquid chromatography by the method of D. W. Kellog, J. Dairy Science, 52, 1690, 1969. Peak heights for acetic, propionic and butyric acids are determined for samples from untreated and treated incubation flasks.

With `CC[C@@H](C(=O)[C@@H](C)[C@@H](O)[C@H](C)[C@@H]1O[C@@H]([C@@H](CC)C(=O)O)CC[C@@H]1C)[C@H]1O[C@]2(C=C[C@@H](O)[C@]3(CC[C@@](C)([C@H]4CC[C@](O)(CC)[C@H](C)O4)O3)O2)[C@H](C)C[C@@H]1C` [salinomycin] the “increase in the production of propionic acid over control” value was about 46%.
